Reference: PubChem BioAssay (NCI)
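Exposure lasted 48 hours, with cells grown in 96-well plates and compounds tested at five concentrations. The concentration for full growth arrest is given as TGI.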

Assays:
Assay in all cases: NCI anticancer screen, dose series, 48 h
[1] = system: 786-0 renal
[2] = system: A549 NSCLC
[3] = system: ACHN renal
[4] = system: BT-549 breast
[5] = system: CAKI-1 renal
[6] = system: COLO 205 colon
[7] = system: DU-145 prostate
[8] = system: HCC-2998 colon
[9] = system: HCT-116 colon
[10] = system: HCT-15 colon
[11] = system: HL-60(TB) leukemia
[12] = system: HOP-62 NSCLC
[13] = system: HOP-92 NSCLC
[14] = system: HS 578T breast
[15] = system: HT29 colon
[16] = system: IGROV1 ovarian
[17] = system: K-562 leukemia
[18] = system: KM12 colon
[19] = system: LOX IMVI melanoma
[20] = system: M14 melanoma
[21] = system: MALME-3M melanoma
[22] = system: MCF7 breast
[23] = system: MDA-MB-231 breast
[24] = system: MDA-MB-435
[25] = system: MDA-N
[26] = system: MOLT-4 leukemia
[27] = system: NCI-H226 lung
[28] = system: NCI-H23 lung
[29] = system: NCI-H460 lung
[30] = system: NCI/ADR-RES ovarian
[31] = system: OVCAR-3 ovarian
[32] = system: OVCAR-4 ovarian
[33] = system: OVCAR-8 ovarian
[34] = system: PC-3 prostate
[35] = system: RPMI-8226 leukemia
[36] = system: RXF 393 renal
[37] = system: SF-268 CNS
[38] = system: SF-295 CNS
[39] = system: SF-539 CNS
[40] = system: SK-MEL-2 melanoma
[41] = system: SK-MEL-5 melanoma
[42] = system: SK-OV-3 ovarian
[43] = system: SN12C renal
[44] = system: SNB-19 CNS
[45] = system: SNB-75 CNS
[46] = system: SR leukemia
[47] = system: SW-620 colon
[48] = system: T-47D breast
[49] = system: TK-10 renal
[50] = system: U251 CNS
[51] = system: UACC-257 melanoma
[52] = system: UACC-62 melanoma
[53] = system: UO-31 renal
[54] = system: EKVX NSCLC
[55] = system: NCI-H522 lung
[56] = system: OVCAR-5 ovarian
[57] = system: SK-MEL-28 melanoma

Nc1nc(N)c2c(Cl)c(CNc3ccc(C(=O)NC(CC(=O)O)C(=O)O)cc3)ccc2n1 (stereo not given)
TGI [1]: > 100 µM
TGI [2]: > 100 µM
TGI [3]: > 100 µM
TGI [4]: > 100 µM
TGI [5]: > 100 µM
TGI [6]: > 100 µM
TGI [7]: > 100 µM
TGI [8]: > 100 µM
TGI [9]: > 100 µM
TGI [10]: > 100 µM
TGI [11]: > 100 µM
TGI [12]: > 100 µM
TGI [13]: > 100 µM
TGI [14]: > 100 µM
TGI [15]: > 100 µM
TGI [16]: 0.415 µM
TGI [17]: > 100 µM
TGI [18]: > 100 µM
TGI [19]: > 100 µM
TGI [20]: > 100 µM
TGI [21]: > 100 µM
TGI [22]: > 34.2 µM
TGI [23]: > 100 µM
TGI [24]: > 100 µM
TGI [25]: > 100 µM
TGI [26]: > 100 µM
TGI [27]: > 100 µM
TGI [28]: > 100 µM
TGI [29]: > 100 µM
TGI [30]: > 100 µM
TGI [31]: > 100 µM
TGI [32]: > 100 µM
TGI [33]: > 100 µM
TGI [34]: > 100 µM
TGI [35]: > 100 µM
TGI [36]: > 100 µM
TGI [37]: > 100 µM
TGI [38]: > 100 µM
TGI [39]: 31.9 µM
TGI [40]: > 100 µM
TGI [41]: > 100 µM
TGI [42]: > 93.3 µM
TGI [43]: > 100 µM
TGI [44]: > 100 µM
TGI [45]: > 100 µM
TGI [46]: > 100 µM
TGI [47]: > 100 µM
TGI [48]: > 100 µM
TGI [49]: > 100 µM
TGI [50]: > 100 µM
TGI [51]: > 100 µM
TGI [52]: > 100 µM
TGI [53]: > 100 µM

O=C(Nc1ccc2ncccc2c1)c1cc2c(cc1Cl)Sc1nccn1S2(=O)=O
TGI [1]: 27.9 µM
TGI [2]: 40.6 µM
TGI [3]: 87.6 µM
TGI [4]: 41.2 µM
TGI [5]: 79.5 µM
TGI [6]: 37.3 µM
TGI [7]: 31 µM
TGI [54]: 39.1 µM
TGI [8]: 27.8 µM
TGI [9]: 25.4 µM
TGI [10]: 24.1 µM
TGI [11]: 26.6 µM
TGI [12]: 39.8 µM
TGI [13]: 76.7 µM
TGI [14]: > 100 µM
TGI [15]: 31.3 µM
TGI [16]: 29.3 µM
TGI [17]: 47 µM
TGI [18]: 21.7 µM
TGI [19]: 34.2 µM
TGI [20]: 29.8 µM
TGI [21]: 35.1 µM
TGI [22]: 35.2 µM
TGI [23]: 45.1 µM
TGI [24]: 17.1 µM
TGI [25]: 18.3 µM
TGI [26]: 45.5 µM
TGI [27]: 35.4 µM
TGI [28]: 32.5 µM
TGI [29]: 30.6 µM
TGI [55]: 24.5 µM
TGI [30]: 47.6 µM
TGI [31]: 47.6 µM
TGI [32]: 73 µM
TGI [56]: 39.6 µM
TGI [33]: 43.7 µM
TGI [34]: > 100 µM
TGI [35]: 41 µM
TGI [36]: 33.6 µM
TGI [37]: 48.4 µM
TGI [38]: 42 µM
TGI [39]: 57.4 µM
TGI [40]: 33.3 µM
TGI [57]: 42 µM
TGI [41]: 28.8 µM
TGI [42]: 62.5 µM
TGI [43]: 33.3 µM
TGI [44]: 34.6 µM
TGI [45]: 30.7 µM
TGI [46]: 45.2 µM
TGI [47]: 34.1 µM
TGI [48]: 45.4 µM
TGI [49]: 69.4 µM
TGI [50]: 26.4 µM
TGI [51]: 47.8 µM
TGI [52]: 32.7 µM
TGI [53]: 39.8 µM
